System: monoclonal antibody specific against catecholamine metabolites containing 3-methoxy, 4-hydroxy group therein
Assay: standard curves for fractionation and determination of ℓ-VMA and HVA in competitive EIA
Format: binding, BALB/c mice
Details: pH 8.0, amount of less than 1 µM
Text: Then, VMA-SBA adsorbed onto the solid phase by the action other than the covalent bond was washed with 0.1 N acetic acid containing 0.1% (w/v) SDS.

SMILES | reaction in competitive EIA
COc1cc(C(O)C(=O)O)ccc1O (single isomer, unassigned) [ℓ-VMA] | did not react
COc1cc(C(O)C(=O)O)ccc1O (centres unmarked) [Vanillylmandelic acid] | reacted only

From EP0352817A2, “Monoclonal antibody to catecholamine metabolite and quantitative assay for catecholamine metabolite” (ORIENTAL YEAST CO., LTD., priority 1988, dated 1990)
